Consider 5 compounds from PMC9037111, “Structure-based design, synthesis, and biological evaluation of novel piperine–resveratrol hybrids as antiproliferative agents targeting SIRT-2” (RSC Advances, 2021).

One test relates to HCT-15. As to the kind of experiment: cells. More on the design: species or system NCI-60 human tumour cell lines; NCI-60 one-dose screen at 10 uM, percent growth inhibition versus untreated control cells. The following applies: Homo sapiens, HCT-15, growth inhibition, one dose. The method, then:
(§1) The antiproliferative activity of the target compounds 5a–h was screened against a panel of 60 cancer cell lines according to NCI-guidelines at concentration of 10 μM. The results for each compound (Table 1) were recorded as the percent of growth inhibition of treated cells compared to untreated control cells. […] In addition, 5b recorded significant activity against leukemia cancer cell lines K-562 and MOLT-4, Non-small cell lung cancer cell lines NCI-H322M and NCI-H460, Colon cancer cell lines COLO 205, HCT-15 and HCT-116, CNS cancer cell lines SF-295 and SF-539, Melanoma cancer cell lines LOX IMVI and UACC-62, Ovarian cancer cell lines NCI/ADR-RES, OVCAR-3, and OVCAR-4, Renal cancer cell lines CAKI-1, ACHN, and UO-31, and Breast cancer MCF7 cell line with growth inhibition percentage between 80 to 95. […] The methodology of the NCI anticancer screening has been described in detail elsewhere (https://dtp.cancer.gov/).[52]

In the next test the test system is UO-31. Description: cells. Also noted: species or system NCI-60 human tumour cell lines; NCI-60 one-dose screen at 10 uM, percent growth inhibition versus untreated control cells. The following applies: Homo sapiens, UO-31, growth inhibition, one dose. The method, then: as §1
Another test relates to MCF7. Description: cells. More on the design: species or system NCI-60 human tumour cell lines; NCI-60 one-dose screen at 10 uM, percent growth inhibition versus untreated control cells. The following applies: Homo sapiens, MCF7, growth inhibition, one dose. The method, then: as §1
Test [1] concerns the target T1, SIRT2 (Homo sapiens, UniProt Q8IXJ6).
T1 sequence (Q8IXJ6 2-389): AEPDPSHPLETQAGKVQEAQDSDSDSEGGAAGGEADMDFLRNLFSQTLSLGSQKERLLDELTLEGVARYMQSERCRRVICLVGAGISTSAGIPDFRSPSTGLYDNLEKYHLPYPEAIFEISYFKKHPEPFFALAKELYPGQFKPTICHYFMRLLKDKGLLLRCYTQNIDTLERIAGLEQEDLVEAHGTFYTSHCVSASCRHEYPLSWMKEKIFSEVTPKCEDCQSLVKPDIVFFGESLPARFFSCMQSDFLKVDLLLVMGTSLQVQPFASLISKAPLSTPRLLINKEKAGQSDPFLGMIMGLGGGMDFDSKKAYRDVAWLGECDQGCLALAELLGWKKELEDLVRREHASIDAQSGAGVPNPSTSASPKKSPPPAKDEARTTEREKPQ
Description: biochemical. More on the design: Sirtuin-TK assay, percent inhibition of human SIRT1 or SIRT2 at 5 and 50 uM. The method, then:
(§2) Sirtuin-TK assay was performed to estimate the Sirtuins inhibitory potential of 5a–h (Tables 2 and 3). The results of this test strongly complemented the findings of cancer cell-based assessments. […] Of the 8 compounds evaluated, 3 analogs (5b, 5e and 5h) were more likely to inhibit Sirt2 (>70% inhibition) than Sirt1 (<50% inhibition) at 50 μM. The other compounds were poor inhibitors of both enzymes. […] 4.2.2. Sirtuin inhibitory assay

The target of the next test is T2, SIRT1 (Homo sapiens, UniProt Q96EB6).
T2 sequence (Q96EB6 2-747): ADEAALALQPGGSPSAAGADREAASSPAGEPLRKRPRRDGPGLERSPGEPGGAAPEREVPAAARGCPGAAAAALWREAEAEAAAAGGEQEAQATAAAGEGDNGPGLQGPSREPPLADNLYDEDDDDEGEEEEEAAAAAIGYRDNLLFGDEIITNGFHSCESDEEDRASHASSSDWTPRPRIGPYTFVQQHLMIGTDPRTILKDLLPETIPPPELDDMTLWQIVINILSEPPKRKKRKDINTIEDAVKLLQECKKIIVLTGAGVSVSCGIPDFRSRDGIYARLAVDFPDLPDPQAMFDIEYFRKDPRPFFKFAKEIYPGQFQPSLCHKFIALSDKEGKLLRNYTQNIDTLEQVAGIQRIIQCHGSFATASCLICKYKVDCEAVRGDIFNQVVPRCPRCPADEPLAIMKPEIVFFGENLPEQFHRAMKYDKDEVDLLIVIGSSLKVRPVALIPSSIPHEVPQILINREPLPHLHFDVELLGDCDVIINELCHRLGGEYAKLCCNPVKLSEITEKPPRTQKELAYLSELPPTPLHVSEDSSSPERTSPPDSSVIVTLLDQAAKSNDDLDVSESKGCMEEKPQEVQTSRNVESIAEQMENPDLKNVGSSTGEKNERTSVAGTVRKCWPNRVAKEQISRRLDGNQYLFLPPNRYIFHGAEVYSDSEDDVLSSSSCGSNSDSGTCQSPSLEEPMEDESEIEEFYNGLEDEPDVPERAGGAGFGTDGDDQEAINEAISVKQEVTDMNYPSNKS
Description: biochemical. Also noted: Sirtuin-TK assay, percent inhibition of human SIRT1 or SIRT2 at 5 and 50 uM. The method, then: as §2

Another test deals with NCI-H322M. Description: cells. More on the design: species or system NCI-60 human tumour cell lines; NCI-60 one-dose screen at 10 uM, percent growth inhibition versus untreated control cells. The following applies: Homo sapiens, NCI-H322M, growth inhibition, one dose. The protocol: as §1
A further test has as its system MDA-MB-231/ATCC. Description: cells. Also noted: species or system NCI-60 human tumour cell lines; NCI-60 one-dose screen at 10 uM, percent growth inhibition versus untreated control cells. The following applies: Homo sapiens, MDA-MB-231, growth inhibition, one dose. The protocol:
as §1

In a further test the test system is HOP-62. Description: cells. More on the design: species or system NCI-60 human tumour cell lines; NCI-60 one-dose screen at 10 uM, percent growth inhibition versus untreated control cells. The following applies: Homo sapiens, HOP-62, growth inhibition, one dose. The protocol:
as §1

The next test concerns OVCAR-3. Description: cells. More on the design: species or system NCI-60 human tumour cell lines; NCI-60 one-dose screen at 10 uM, percent growth inhibition versus untreated control cells. The following applies: Homo sapiens, OVCAR-3, growth inhibition, one dose. The method, then: as §1
Test [2] deals with T1, SIRT2. As to the kind of experiment: sirtuin deacetylase inhibition assay, IC50. Format: biochemical.
Where [3] appears, read: read-out: Growth% inhibition / 5d.
[4] abbreviates: read-out: Growth% inhibition / 5a.
[5] abbreviates: read-out: Growth% inhibition / 5b.
Setting [6] is: read-out: Growth% inhibition / 5e.
[7] abbreviates: read-out: Growth% inhibition / 5h.

Read-outs that look alike come from different tables or passages of the source.

For `CN(C)c1ccc(C=NNC(=O)/C=C/C=C/c2ccc3c(c2)OCO3)cc1` (mixture of isomers) [5d, (2E,4E)-5-(Benzo[d][1,3]dioxol-5-yl)-N′-((E/Z)-4-(dimethylamino)-benzylidene)penta-2,4-dienehydrazide], the inhibition at 10 µM in the test on HCT-15 (setting [3]) was 24.2%; in the test with UO-31 (setting [3]), 23.7%; with MCF7 (setting [3]), 43.6%. Also, the figures for the inhibition at 5 µM against SIRT2 [1] and at SIRT1 were 18 ± 2% and 11 ± 2%, respectively.
Turning to `O=C(/C=C/C=C/c1ccc2c(c1)OCO2)NN=Cc1ccc(O)cc1` [5a, (2E,4E)-5-(Benzo[d][1,3]dioxol-5-yl)-N′-((E,Z)-4-hydroxybenzylidene)penta-2,4-dienehydrazide], the inhibition at 10 µM is 39.7% with HCT-15 (setting [4]); 39.2% in the test with UO-31 (setting [4]); 18.5% with NCI-H322M (setting [4]); 17.2% with MDA-MB-231/ATCC (setting [4]); 28.8% in the test on MCF7 (setting [4]). Further, the inhibition at 5 µM against SIRT2 [1] stood at 19 ± 3%; on SIRT1, 13 ± 3%. The inhibition at 50 µM at SIRT1 came to 42 ± 3%.
As for `O=C(/C=C/C=C/c1ccc2c(c1)OCO2)N/N=C/c1ccc(O)cc1O` [5b, (2E,4E)-5-(Benzo[d][1,3]dioxol-5-yl)-N′-((E)-2,4-dihydroxybenzylidene)penta-2,4-dienehydrazide], the inhibition at 10 µM turned out to be 83% in the test with HCT-15 (setting [5]); 88.6% in the test with UO-31 (setting [5]); 72.9% with HOP-62 (setting [5]); 82.2% in the test on NCI-H322M (setting [5]); 90.3% in the test on OVCAR-3 (setting [5]); 65.6% with MDA-MB-231/ATCC (setting [5]). Further, the inhibition at 10 µM with MCF7 (setting [5]) was determined as 85.9%. This compound also came in with an IC50 at SIRT2 [2] of 21 ± 3 µM. The inhibition at 5 µM was 26 ± 3% at SIRT2 [1] and 18 ± 3% against SIRT1. The compound also gave an inhibition at 50 µM against SIRT2 [1] of 78 ± 3%.
With `CCN(CC)c1ccc(/C=N/NC(=O)/C=C/C=C/c2ccc3c(c2)OCO3)c(O)c1` [5e, (2E,4E)-5-(Benzo[d][1,3]dioxol-5-yl)-N′-((E)-4-(diethylamino)-2-hydroxybenzylidene)penta-2,4-dienehydrazide], the inhibition at 10 µM is 78.7% in the test on HCT-15 (setting [6]); 75% in the test with UO-31 (setting [6]); 71.5% in the test on HOP-62 (setting [6]); 66.8% with NCI-H322M (setting [6]); 95.1% in the test on OVCAR-3 (setting [6]); 56.8% with MDA-MB-231/ATCC (setting [6]). Further, in the test with MCF7 (setting [6]), the inhibition at 10 µM was 80.5%. This compound also came in with a half-inhibitory concentration (IC50) against SIRT2 [2] of 23 ± 2 µM. The inhibition at 5 µM was 24 ± 3% against SIRT2 [1] and 20 ± 5% against SIRT1. Besides, the inhibition at 50 µM came to 74 ± 2% on SIRT2 [1] and 44 ± 2% against SIRT1.
Take `C/C(=N\NC(=O)/C=C/C=C/c1ccc2c(c1)OCO2)c1ccc(Br)cc1` [5h, (2E,4E)-5-(Benzo[d][1,3]dioxol-5-yl)-N′-((E)-1-(4-bromophenyl)ethylidene)penta-2,4-dienehydrazide]: the inhibition at 10 µM in the test on HCT-15 (setting [7]) was 36.3%; in the test on UO-31 (setting [7]), 44.9%; in the test with HOP-62 (setting [7]), 33.2%; in the test on NCI-H322M (setting [7]), 36.5%; in the test with OVCAR-3 (setting [7]), 24.4%; with MDA-MB-231/ATCC (setting [7]), 21%. For the same compound, the inhibition at 10 µM in the test with MCF7 (setting [7]) is 38.7%. At SIRT2 [2], this compound came in with an IC50 of 26 ± 3 µM. In addition, the inhibition at 5 µM against SIRT2 [1] amounted to 22 ± 5%; on SIRT1 it was 16 ± 5%. Also, the inhibition at 50 µM came to 75 ± 3% at SIRT2 [1] and 44 ± 3% on SIRT1.

As usually defined, the IC50 is the concentration that gives 50% inhibition. A higher IC50 goes with weaker potency.
